Results: patent publication US10010547B2 (CASCADIAN THERAPEUTICS, INC., priority 2014, dated 2018)
Where a name gives a salt, the structure may show the parent alone. Read-outs that look alike come from different tables or passages of the source.

Legend:
Chk-1 kinase = Chk-1 kinase (Homo sapiens (Human), UniProt O14757); experiment: Chk-1 Kinase Inhibiting Activity (33P-ATP filter assay, CHKtide substrate); format: biochemical
How it was run: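 Full-length N-terminal GST-tagged human Chk-1 from insect cells, 0.5 nM final, with 20 μM peptide substrate and 33P-ATP in HEPES pH 7.5 buffer with 1% DMSO. Reaction ran 120 minutes at room temperature; incorporated radioactivity captured on P81 filters and counted for IC50.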

MIA PaCa-2 cells = experiment: Gemcitabine Combination Cell Assay (Cell Titer Glo); format: cell-based; settings: for IC50: Homo sapiens; for 10xLS: approximate concentration of Chk1 inhibitor that results in a 10-fold reduction in the IC50 of gemcitabine alone; for 2xLS: approximate concentration of Chk1 inhibitor that results in a two-fold reduction in the IC50 of gemcitabine alone
How it was run: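 MIA PaCa-2 cells were treated 72 h with half-log dilutions of Chk1 inhibitor (top 3000 nM) and gemcitabine (top 100 nM), alone and in full matrix; viability by CellTiter-Glo luminescence. IC50s from four-parameter fit; Chk1 inhibitor concentrations giving two- and ten-fold lowering of gemcitabine IC50 were estimated.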

[1] = against Chk-1 kinase, read-out: IC50
[2] = Chk1 inhibitor alone, MIA PaCa-2 cells, 72 h, read-out: Chk1 IC50
[3] = MIA PaCa-2, 72 h, read-out: Chk1 IC50 (nM)

Chain of Chk-1 kinase (O14757 whole entry): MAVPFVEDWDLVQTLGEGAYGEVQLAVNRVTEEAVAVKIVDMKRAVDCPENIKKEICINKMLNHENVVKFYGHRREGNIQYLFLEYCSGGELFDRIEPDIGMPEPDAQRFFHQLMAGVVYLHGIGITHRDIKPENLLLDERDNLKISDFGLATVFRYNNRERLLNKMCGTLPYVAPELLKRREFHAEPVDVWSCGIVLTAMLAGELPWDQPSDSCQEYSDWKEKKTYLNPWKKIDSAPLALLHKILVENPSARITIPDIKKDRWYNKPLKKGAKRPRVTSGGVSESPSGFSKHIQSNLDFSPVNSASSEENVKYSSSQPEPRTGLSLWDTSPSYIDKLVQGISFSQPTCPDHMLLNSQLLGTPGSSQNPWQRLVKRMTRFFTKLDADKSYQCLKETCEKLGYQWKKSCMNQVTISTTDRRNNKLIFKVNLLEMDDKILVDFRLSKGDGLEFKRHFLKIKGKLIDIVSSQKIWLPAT

Row | SMILES | IC50 (Chk-1 kinase; [1]) | IC50 (MIA PaCa-2 cells; [2]) | 10xLS (MIA PaCa-2 cells; MIA PaCa-2 cells, 72 h) | 2xLS (MIA PaCa-2 cells; MIA PaCa-2 cells, 72 h) | IC50 (Chk-1 kinase) | IC50 (MIA PaCa-2 cells; [3])
1 | COc1cc(CN[C@H](C)c2ccc(F)cc2)ccc1-c1cc(Nc2cnc(C#N)cn2)n[nH]1 [Example 7, 5-[5-(4-{[(R)-1-(4-fluoro-phenyl)-ethylamino]-methyl}-2-methoxy-phenyl)-1H-pyrazol-3-ylamino]-pyrazine-2-carbonitrile] | 0.1 nM | 208 nM | ~200 nM | 10 nM |  | 
2 | COc1cc(CNCCN2CCOCC2)ccc1-c1cc(Nc2cnccn2)n[nH]1 [Example 10, (5-{2-methoxy-4-[(2-morpholin-4-yl-ethylamino)-methyl]-phenyl}-1H-pyrazol-3-yl)-pyrazin-2-yl-amine] | 11 nM | > 3000 nM | >3000 nM | 1000 nM |  | 
3 | COc1cc(C2CCN(C)CC2)c(Cl)cc1-c1cc(Nc2cnc(C#N)cn2)n[nH]1 [Example 67, 5-[[5-[5-chloro-2-methoxy-4-(1-methyl-4-piperidyl)phenyl]-1H-pyrazol-3-yl]amino]pyrazine-2-carbonitrile] | 1.8 nM | 1320 nM | 1000 nM | 100 nM |  | 
4 | COc1cc([C@H]2CCN(C)C[C@@H]2F)ccc1-c1cc(Nc2cnc(C#N)cn2)n[nH]1 [Example 96, 5-[[5-[4-[(3(R,S),4(R,S))-3-fluoro-1-methyl-4-piperidyl]-2-methoxy-phenyl]-1H-pyrazol-3-yl]amino]pyrazine-2-carbonitrile] |  | 730 nM | <300 nM | 10 nM | 0.4 nM | 
5 | COc1cc(OC2CCN(C)CC2)ccc1-c1cc(Nc2cnc(C#N)cn2)n[nH]1 [Example 28, 5-[[5-[2-methoxy-4-[(1-methyl-4-piperidyl)oxy]phenyl]-1H-pyrazol-3-yl]amino]pyrazine-2-carbonitrile hydrochloride] | 0.13 nM |  | <100 nM | <3 nM |  | 279 nM
6 | N#Cc1cnc(Nc2cc(-c3ccc(C4CCNCC4)cc3)[nH]n2)cn1 [Example 56, 5-[[5-[4-(4-piperidyl)phenyl]-1H-pyrazol-3-yl]amino]pyrazine-2-carbonitrile] | 183 nM | > 3000 nM | >3000 nM | 1000 nM |  | 
7 | CN1CCC(c2ccc(-c3cc(Nc4cnc(C#N)cn4)n[nH]3)cc2)CC1 [Example 27, 5-[[5-[4-(1-methyl-4-piperidyl)phenyl]-1H-pyrazol-3-yl]amino]pyrazine-2-carbonitrile] | 3.6 nM | 5750 nM | 3000 nM | 300 nM |  | 
8 | CCN1CCC(Cc2ccc(-c3cc(Nc4cnc(C#N)cn4)n[nH]3)c(OC)c2)CC1 [Example 143, 5-[[5-[4-[(1-Ethyl-4-piperidyl)methyl]-2-methoxy-phenyl]-1H-pyrazol-3-yl]amino]pyrazine-2-carbonitrile hydrochloride] | 0.021 nM |  | <300 nM | <10 nM |  | 820 nM
9 | COc1cc(CNCC2CCN(C(=O)C3CC3)CC2)ccc1-c1cc(Nc2cnc(C#N)cn2)n[nH]1 [Example 12, 5-[5-(4-{[(1-cyclopropane-carbonyl-piperidin-4-ylmethyl)-amino]-methyl}-2-methoxy-phenyl)-1 H-pyrazol-3-ylamino]-pyrazine-2-carbonitrile] | 0.034 nM | 264 nM | ~50 nM | <3 nM |  | 
10 | COc1cc(C2CCNCC2)ccc1-c1cc(Nc2ccc(C#N)c(F)c2)n[nH]1 [Example 49, 2-fluoro-4-[[5-[2-methoxy-4-(4-piperidyl)phenyl]-1H-pyrazol-3-yl]amino]benzonitrile] | 36 nM | 3570 nM | <3000 nM | 1000 nM |  | 
11 | COc1cc(OCC2CCCN2C)ccc1-c1cc(Nc2cnc(C#N)cn2)n[nH]1 (stereo not shown) [Example 35, 5-[[5-[2-methoxy-4-[(1-methylpyrrolidin-2-yl)methoxy]phenyl]-1H-pyrazol-3-yl]amino]pyrazine-2-carbonitrile] | 0.14 nM | 217 nM | 100 nM | 3 nM |  | 

Further lines, with some results ahead:

Row | IC50 (Chk-1 kinase; [1]) | IC50 (MIA PaCa-2 cells; [2]) | SMILES | 10xLS (MIA PaCa-2 cells; MIA PaCa-2 cells, 72 h) | 2xLS (MIA PaCa-2 cells; MIA PaCa-2 cells, 72 h) | IC50 (Chk-1 kinase) | IC50 (MIA PaCa-2 cells; [3])
12 | 0.16 nM | 173 nM | COc1cc(CNC2CCOC2)ccc1-c1cc(Nc2cnc(C#N)cn2)n[nH]1 (stereo not shown) [Example 72, 5-[[5-[2-methoxy-4-[(tetrahydrofuran-3-ylamino)methyl]phenyl]-1H-pyrazol-3-yl]amino]pyrazine-2-carbonitrile] | 100 nM | 10 nM |  | 
13 | 0.35 nM | 282 nM | COc1cc(NCC2CCOCC2)ccc1-c1cc(Nc2cnc(C#N)cn2)n[nH]1 [Example 74, 5-[[5-[2-methoxy-4-(tetrahydropyran-4-ylmethylamino)phenyl]-1H-pyrazol-3-yl]amino]pyrazine-2-carbonitrile] | 100 nM | 3 nM |  | 
14 | 0.12 nM | 137 nM | COc1cc(N2CCCNCC2)ccc1-c1cc(Nc2cnc(C#N)cn2)n[nH]1 [Example 54, 5-[[5-[4-(1,4-diazepan-1-yl)-2-methoxy-phenyl]-1H-pyrazol-3-yl]amino]pyrazine-2-carbonitrile] | 30 nM | <3 nM |  | 
15 | 0.1 nM | 251 nM | COc1cc(C2CCN(C(C)C)CC2)ccc1-c1cc(Nc2cnc(C#N)cn2)n[nH]1 [Example 61, 5-[[5-[4-(1-isopropyl-4-piperidyl)-2-methoxy-phenyl]-1H-pyrazol-3-yl]amino]pyrazine-2-carbonitrile] | 100 nM | 2 nM |  | 
16 | 0.027 nM | 743 nM | COc1cc(CO[C@H]2CCN(C(C)C)C2)ccc1-c1cc(Nc2cnc(C#N)cn2)n[nH]1 [Example 139, 5-[[5-[4-[[(3S)-1-isopropylpyrrolidin-3-yl]oxymethyl]-2-methoxy-phenyl]-1H-pyrazol-3-yl]amino]pyrazine-2-carbonitrile] | 300 nM | 10 nM |  | 
17 | 0.053 nM | 228 nM | CCN1CCN(c2cc(F)c(-c3cc(Nc4cnc(C#N)cn4)n[nH]3)c(OC)c2)CC1 [Example 136, 5-[[5-[4-(4-ethylpiperazin-1-yl)-2-fluoro-6-methoxy-phenyl]-1H-pyrazol-3-yl]amino]pyrazine-2-carbonitrile] | 100 nM | 3 nM |  | 
18 | 0.087 nM | 82 nM | COc1cc(NCC2CCN(C(C)C)CC2)ccc1-c1cc(Nc2cnc(C#N)cn2)n[nH]1 [Example 109, 5-[[5-[4-[(1-isopropyl-4-piperidyl)methylamino]-2-methoxy-phenyl]-1H-pyrazol-3-yl]amino]pyrazine-2-carbonitrile] | <30 nM | <3 nM |  | 
19 | 0.19 nM | 36 nM | CCN1CCN(c2ccc(-c3cc(Nc4cnc(C#N)cn4)n[nH]3)c(OC)c2)CC1 [Example 80, 5-[[5-[4-(4-ethylpiperazin-1-yl)-2-methoxy-phenyl]-1H-pyrazol-3-yl]amino]pyrazine-2-carbonitrile] | 10 nM | <3 nM |  | 
20 | 7.9 nM | 2200 nM | COc1c(-c2cc(Nc3cnc(C#N)cn3)n[nH]2)ccc(C2CCN(C)CC2)c1Cl [Example 69, 5-[[5-[3-chloro-2-methoxy-4-(1-methyl-4-piperidyl)phenyl]-1H-pyrazol-3-yl]amino]pyrazine-2-carbonitrile] | 1000 nM | 100 nM |  | 
21 | 0.077 nM | 227 nM | COc1cc(CNCCN2CCOCC2)ccc1-c1cc(Nc2cnc(C#N)cn2)n[nH]1 [Example 9, 5-(5-{2-methoxy-4-[(2-morpholin-4-yl-ethylamino)-methyl]-phenyl}-1H-pyrazol-3-ylamino)-pyrazine-2-carbonitrile] | 100 nM | 3 nM |  | 
22 | 0.044 nM | 169 nM | COc1cc(OC[C@H]2CCCN2C(C)C)ccc1-c1cc(Nc2cnc(C#N)cn2)n[nH]1 [Example 127, 5-[[5-[4-[[(2R)-1-isopropylpyrrolidin-2-yl]methoxy]-2-methoxy-phenyl]-1H-pyrazol-3-yl]amino]pyrazine-2-carbonitrile] | <100 nM | <3 nM |  | 
23 | 0.12 nM | 139 nM | COc1cc(N2CCN(C(C)C)[C@H](C)C2)ccc1-c1cc(Nc2cnc(C#N)cn2)n[nH]1 [Example 133, 5-[[5-[4-[(3R)-4-isopropyl-3-methyl-piperazin-1-yl]-2-methoxy-phenyl]-1H-pyrazol-3-yl]amino]pyrazine-2-carbonitrile] | 30 nM | <3 nM |  | 
24 | 0.14 nM | 62 nM | COc1cc(N2CCCN(C(C)C)CC2)ccc1-c1cc(Nc2cnc(C#N)cn2)n[nH]1 [Example 84, 5-[[5-[4-(4-isopropyl-1,4-diazepan-1-yl)-2-methoxy-phenyl]-1H-pyrazol-3-yl]amino]pyrazine-2-carbonitrile] | <100 nM | <3 nM |  | 
25 | 0.21 nM | 73 nM | COc1cc(O[C@H]2CCN(C)C2)ccc1-c1cc(Nc2cnc(C#N)cn2)n[nH]1 [Example 42, 5-[[5-[2-methoxy-4-[(3S)-1-methylpyrrolidin-3-yl]oxy-phenyl]-1H-pyrazol-3-yl]amino]pyrazine-2-carbonitrile] | <30 nM | <3 nM |  | 
